Assay results from US20060205688A1, “Method of modulating epithelial cell activity by modulating the functional levels of sphingosine kinase” (priority 2002, published 2006).
Entries after “also recorded” stand apart in the source; their conditions may differ. Like-named read-outs stand apart in the source and are kept apart here.

Experiments:
Assay type in all cases: cell-based, human
[1] = test system: HUVEC; experiment: Cell survival in serum-free medium (MTS); parameters: effect of inhibitor on cell survival of control cells: dose or concentration left out as unconfirmed
Procedure: Endothelial cells were plated into gelatin coated 96 well microtitre trays at 3×10^3 cells per well in serum-free medium. MTS (Promega, WI, USA) was used to measure cell viability. Optical density at 490 nm was measured on Day 0, Day 1, Day 2, and Day 3.
Cell survival was measured in serum-free medium supplemented with ECGs and in non-tissue culture non-adhesive trays coated with 1% bovine serum albumin under serum free culture conditions.

[2] = test system: PECAM-1; experiment: PECAM-1 expression (flow cytometry, Western blot); settings: normal HUVEC
Procedure: SDS-polyacrylamide gel electrophoresis was performed as described (Pitson S M, Moretti P A, Zebol J R, Xia P, Gamble J R, Vadas M A et al. (2000) J Biol Chem; 275(43):33945-33950) on cell lysates using 12% acrylamide gels. […] The membrane was incubated with horseradish peroxidase-conjugated anti-mouse IgG or anti-rabbit IgG (Pierce) and immunocomplexes were detected using enhanced chemiluminescence (Amersham Pharmacia Biotech).
Flow cytometric analysis of cell surface expression of PECAM-1 and VE-Cadherin was performed as previously described (Xia P, Gamble J R, Rye K A, Wang L, Hii C S, Cockerill P et al. (1998) supra) using 10 µg/ml mouse monoclonal primary antibodies to PECAM-1 (51-6F6) or VE-Cadherin (55-7H1) generated in our laboratory (Gamble J R, Khew-Goodall Y, Vadas M A. (1993) J Immunol; 150(10):4494-4503). […] The median fluorescence intensity was determined using a Coulter Epics Profile XL flow cytometer. FAC S analysis of the cell surface expression of CD34 was done by incubating 1×10^6 cells with […] of anti-CD34, R-phycoerythrin (R-PE)-conjugated mouse anti-human mAb (BD Pharmingen, San Diego, Calif.) for 30 minutes at room temperature, and then determining the median fluorescence intensity.

[3] = test system: PECAM-1; experiment: PECAM-1 phosphorylation (Western blot); settings: data not shown
Procedure: SDS-polyacrylamide gel electrophoresis was performed as described (Pitson S M, Moretti P A, Zebol J R, Xia P, Gamble J R, Vadas M A et al. (2000) J Biol Chem; 275(43):33945-33950) on cell lysates using 12% acrylamide gels. Proteins were transferred to PVDF membranes, blocked in 5% low fat milk in PBS with 0.1% Tween20 for one hour, and incubated overnight at 4 C with M2 mouse anti-FLAG antibody (Sigma, St Louis, Mo.), rabbit polyclonal anti-phospho-Akt (Cell Signaling Technology), rabbit polyclonal anti-Akt (Cell Signaling Technology), anti-phosphotyrosine (Cell Signaling Technology), or for one hour at room temperature with mouse anti-cyclin D1 or cyclin E (Santa Cruz Biotechnology) or mouse monoclonal antibody directed to PECAM-1 (51-6F6) raised at The Hanson Institute, Adelaide, Australia. The membrane was incubated with horseradish peroxidase-conjugated anti-mouse IgG or anti-rabbit IgG (Pierce) and immunocomplexes were detected using enhanced chemiluminescence (Amersham Pharmacia Biotech).

[4] = test system: VCAM-1; experiment: VCAM-1 cell surface expression (FACS)
Procedure: (§1) Flow cytometric analysis of cell surface expression of E-Selectin and VCAM-1 was performed as previously described (11) using 10 μg/ml mouse monoclonal primary antibodies to E-Selectin (49-1B11) or VCAM-1 (51-10C9) generated in our laboratory (Gamble J R, Khew-Goodall Y, Vadas M A. (1993) supra). Secondary antibodies used were anti-mouse fluorescein-isothiocyanate, or for GFP-expressing cells, goat anti-mouse IgG R-phycoerythrin conjugate (Southern Biotech Birmingham, Ala., USA). The median fluorescence intensity was determined using a Coulter Epics Profile XL flow cytometer.

[5] = test system: E-Selectin; experiment: E Selectin cell surface expression (FACS)
Procedure: as §1

[6] = 5 μM for four hours, SK and EV cells
[7] = pertussis toxin 50 ng/ml 18 hours, then TNFα 0.5 ng/ml four hours, control cells or SK cells
[8] = pertussis toxin 50 ng/ml, cells over-expressing SK or EV

With COc1cccc(-c2cc(=O)c3ccccc3o2)c1N [PD98059] the “effect of inhibitor on cell survival of control cells” value ([1]; EV cells, Day 2) was “significantly reduced cell survival”.

In the case of CCCCCCCCCCCCC/C=C/[C@@H](O)[C@@H](N)COP(=O)(O)O [S1P], the “PECAM-1 expression after exogenous S1P” value [2] was “did not induce PECAM-1 expression; also recorded: had no effect”, the “PECAM-1 phosphorylation status after exogenous S1P” value [3] was “had no effect” and the “VCAM-1 expression after exogenous SIP” value [4, 6] was “up-regulation”. For the same compound, the “E Selectin expression after exogenous SIP” value [5, 6] was “up-regulation”.

For N#CC(=C(/N)Sc1ccccc1N)/C(C#N)=C(\N)Sc1ccccc1N [U0126], the “effect of inhibitor on cell survival of control cells” value [1] was “significantly reduced cell survival”.

For pertussis toxin, the “effect on SK-mediated cell survival” value ([1]; pertussis toxin 50 ng/ml, HUVEC over-expressing SK) was “not inhibited”, the “effect of pretreatment on adhesion molecule response to exogenous SIP” value ([4]; SK and EV cells, adhesion molecule (VCAM-1 / E Selectin) not specified) was “inhibited” and the “effect of pre-treatment on TNFα-induced VCAM-1 expression” value [4, 7] was “did not alter”. For the same compound, the “effect on basal or TNFα-induced VCAM-1 expression” value [4, 8] was “did not inhibit”, the “effect of pre-treatment on TNFα-induced E Selectin expression” value [5, 7] was “did not alter” and the “effect on basal or TNFα-induced E Selectin expression” value [5, 8] was “did not inhibit”.
